In patent publication US10083341B2, “Cellular activity quantification using labeled probes” (Oregon Health & Science University, priority 2014, dated 2018):
Entries after “also recorded” stand apart in the source; their conditions may differ. Where two headings read alike, the source gives them in different places.

Legend:
MOLM-14 cells = assay: Inhibitory concentrations (IC50, IC12.5) of kinase inhibitor panel for MOLM-14 cells; type: cell-based, human; conditions: concentration used for 48 h treatment
pERK = conditions: MOLM-14 cells, 48 h
Protocol: (§1) Cell culture and kinase inhibitor treatment. Primary mononuclear cells (MNCs) were isolated from peripheral blood or bone marrow of newly diagnosed, untreated patients with chronic phase CML. MNCs were isolated by centrifugation through a Ficoll gradient, and red blood cells were lysed with 1×ACK (0.15 M NH4Cl, 10 mM KHCO3, 0.1 mM EDTA). MNCs were grown in serum-free media consisting of IMDM supplemented with 20% BIT (Stem Cell Technologies), 40 μg/ml low-density lipoprotein (Sigma-Aldrich), 10^-6 M β-mercaptoethanol, and the following cytokines: 100 ng/ml SCF (Stem Cell Technologies), 100 ng/ml G-CSF, 20 ng/ml FLT3 ligand, 20 ng/ml IL-3, and 20 ng/ml IL-6 (Sigma-Aldrich). MNCs were grown at a density of 5×10^5 cells/ml at 37° C., 5% CO2, overnight in a humidified incubator before drug treatment. The CML (K562) and AML (MOLM-14) cell lines were grown in suspension culture, in RPMI with 10% fetal bovine serum (Invitrogen), 1% L-glutamine (100 mM), and 1% penicillin/streptomycin (100 μg/ml), in a humidified incubator at 37° C., 5% CO2.
(§2) K562 cells and MNCs were treated for 4 h with dasatinib, at a concentration of 100 nM unless otherwise specified.
(§3) SC-QDP phosphoprotein labeling. Cells were fixed, permeabilized and dispersed onto cover glass chambers (Lab-Tek; Nunc), or custom-made, multi-well cover glass chambers for high throughput assays. The cells in each well were blocked and treated with primary anti-phosphoprotein antibodies (pCRKL, pSTAT5, pSTAT3, pERK1/2, pAKT473; Cell Signaling Technology). The anti-CD34 antibody (Dako, USA) was used for selection of CD34+ primitive cells. […] After cells were incubated with secondary antibodies, they were washed in buffer solution and imaged.
(§4) SC-QDP image acquisition. Cells were imaged with an inverted fluorescent microscope (Zeiss AxioObserver) equipped with high magnification objectives, QD filter sets (Semrock), and a Luca-R camera (Andor) suitable for detecting discrete QD fluorescence. Data acquisition consisted of acquiring multiple fields of view randomly for each well of the multi-well chamber. The microscope was controlled by Micromanager (www.micro-manager.org/). […] Image acquisition was performed manually or by automated high-throughput scanning. For automated high-throughput scanning, a custom-written Java plugin for Micromanager was used that allows scanning of user-selected wells as well as random or user-selected areas within each well for DIC, and appropriate multiple quantum dot (QD) channels. The Java plugin also corrected slide tilt by determining the slide focal plane. Image focus at each well was verified and corrected manually if needed.
(§5) SC-QDP discrete QD counts in single cells. Levels of phosphoprotein activity were quantified in single cells using automated software imaging algorithms. Cell segmentation was first done manually and then was optimized for speed using an automated procedure. Automated cell segmentation comprised detecting the nucleus and plasma membrane using a threshold-based intensity algorithm and a membrane expansion cell segmentation algorithm (www.cellprofiler.org) of each cell. Discrete QD fluorescence was detected, localized and tabulated on a per cell basis using automated algorithms written in MATLAB (Matlab). Briefly, detection of discrete QD probes was accomplished in single-cell z-stacks by applying a spatial bandpass filter, detecting localized maxima, and calculating the position of each QD for each z-slice. […] The output of these automated algorithms comprised total counts of detected and localized discrete QD fluorescent puncta in each single cell z-stack.

pAKT = conditions: MOLM-14 cells, 48 h
Protocol: as §1, §2, §3, §4, §5

pCRKL [1] = assay: SC-QDP pCRKL in single CD34+ cells from CML patients; type: cell-based, human; conditions: dasatinib 100 nM, 4 h
Protocol: as §1
K562 cells and MNCs were treated for 4 h with dasatinib, at a concentration of 100 nM unless otherwise specified. […].
(§6) SC-QDP phosphoprotein labeling. Cells were fixed, permeabilized and dispersed onto cover glass chambers (Lab-Tek; Nunc), or custom-made, multi-well cover glass chambers for high throughput assays. The cells in each well were blocked and treated with primary anti-phosphoprotein antibodies (pCRKL, pSTAT5, pSTAT3, pERK1/2, pAKT473; Cell Signaling Technology). The anti-CD34 antibody (Dako, USA) was used for selection of CD34+ primitive cells. […]
(§7) SC-QDP image acquisition. Cells were imaged with an inverted fluorescent microscope (Zeiss AxioObserver) equipped with high magnification objectives, QD filter sets (Semrock), and a Luca-R camera (Andor) suitable for detecting discrete QD fluorescence. […]
(§8) SC-QDP discrete QD counts in single cells. Levels of phosphoprotein activity were quantified in single cells using automated software imaging algorithms. […]

pCRKL [2] = assay: QD total (diffuse) fluorescence quantification of pCRKL in K562 cells; type: cell-based, human; conditions: dasatinib-treated, untreated 1.1
Protocol: as §1, with “The CML (K562) and AML (MOLM-14) cell lines were grown in suspension culture, in RPMI with 10% fetal bovine serum (Invitrogen), 1% L-glutamine (100 mM), and 1% penicillin/streptomycin (100 μg/ml), in a humidified incubator at 37° C., 5% CO2.” left out
as §7
Measurements of single-cell total fluorescence of QD and Alexa dyes were obtained for each cell by summing pixel values from all slices in a single z-stack corresponding to each cell and subtracting the global background value for each field of view from the image. […]

pSTAT5 = assay: SC-QDP pSTAT5 in single CD34+ cells from CML patients; type: cell-based, human; conditions: five CML patients, dasatinib 100 nM, 4 h
Protocol: as §1, with “The CML (K562) and AML (MOLM-14) cell lines were grown in suspension culture, in RPMI with 10% fetal bovine serum (Invitrogen), 1% L-glutamine (100 mM), and 1% penicillin/streptomycin (100 μg/ml), in a humidified incubator at 37° C., 5% CO2.” left out
as §7, §8

pCRKL [3] = assay: SC-QDP discrete QD counting of pCRKL in K562 cells; type: cell-based, human; conditions: pCRKL level divided by isotype control, untreated 11.4
Protocol: as §1, with “The CML (K562) and AML (MOLM-14) cell lines were grown in suspension culture, in RPMI with 10% fetal bovine serum (Invitrogen), 1% L-glutamine (100 mM), and 1% penicillin/streptomycin (100 μg/ml), in a humidified incubator at 37° C., 5% CO2.” left out
as §7, §8

[4] = tested on: pCRKL, pSTAT5, and pSTAT3; assay: SC-QDP baseline phosphoheterogeneity of K562 cells after cell cycle synchronization; type: cell-based, human; conditions: lovastatin-induced cell cycle synchronization, data not shown
Excerpt: as §6, §7
SC-QDP discrete QD counts in single cells. Levels of phosphoprotein activity were quantified in single cells using automated software imaging algorithms. […] Discrete QD fluorescence was detected, localized and tabulated on a per cell basis using automated algorithms written in MATLAB (Matlab). […] The output of these automated algorithms comprised total counts of detected and localized discrete QD fluorescent puncta in each single cell z-stack. […] The QDs were identified as discrete, non-aggregated units comprised of single or a few QDs, as confirmed by intensity profile measurements of QD fluorescence. […]

COc1cc2c(Nc3ccc(Br)cc3F)ncnc2cc1OCC1CCN(C)CC1 [vandetanib]
IC12.5 (MOLM-14 cells; Homo sapiens): 0.9 µM
IC50 (MOLM-14 cells; Homo sapiens): 3600 nM

CNC(=O)c1ccccc1Sc1ccc2c(/C=C/c3ccccn3)n[nH]c2c1 [axitinib]
IC12.5 (MOLM-14 cells): 0.025 µM

Cc1ccc(NC(=O)c2ccc(CN3CCN(C)CC3)cc2)cc1Nc1nccc(-c2cccnc2)n1 [imatinib]
IC12.5 (MOLM-14 cells; Homo sapiens): 2.5 µM

N#CC[C@H](C1CCCC1)n1cc(-c2ncnc3[nH]ccc23)cn1 [ruxolitinib]
IC12.5 (MOLM-14 cells; Homo sapiens): 2.5 µM
IC50 (MOLM-14 cells; Homo sapiens): 10000 nM

C#Cc1cccc(Nc2ncnc3cc(OCCOC)c(OCCOC)cc23)c1 [erlotinib]
IC12.5 (MOLM-14 cells; Homo sapiens): 1.75 µM
IC50 (MOLM-14 cells; Homo sapiens): 7000 nM
overall shift of pERK PDE curve (pERK): left-shift
percentage of resistant cells (pERK equal to or greater than mean pERK of untreated cells) (pERK; IC50 concentration (FIG. 5C legend)): 36%
pERK phosphoresponse (pERK; at IC12.5): phosphoinhibition
pERK phosphoresponse (pERK; at IC50): phosphoactivation
overall shift of pAKT PDE curve (pAKT): left-shift
pAKT phosphoresponse (pAKT; at IC12.5): phosphoinhibition; also recorded: inhibition of pAKT
pAKT phosphoresponse (pAKT; at IC50): phosphoactivation; also recorded: pAKT activation

C=CC(=O)N1CCC[C@@H](n2nc(-c3ccc(Oc4ccccc4)cc3)c3c(N)ncnc32)C1 [ibrutinib]
IC12.5 (MOLM-14 cells; Homo sapiens): 0.4 µM
IC50 (MOLM-14 cells; Homo sapiens): 1600 nM

COc1cc2ncnc(Nc3ccc(F)c(Cl)c3)c2cc1OCCCN1CCOCC1 [gefitinib]
IC12.5 (MOLM-14 cells; Homo sapiens): 2.25 µM

CCN(CC)CCNC(=O)c1c(C)[nH]c(/C=C2\C(=O)Nc3ccc(F)cc32)c1C [sunitinib]
IC50 (MOLM-14 cells; Homo sapiens): 12 nM
IC12.5 (MOLM-14 cells): 0.003 µM

Cc1ccc(Nc2nccc(N(C)c3ccc4c(C)n(C)nc4c3)n2)cc1S(N)(=O)=O [pazopanib]
IC12.5 (MOLM-14 cells; Homo sapiens): 0.5 µM
IC50 (MOLM-14 cells; Homo sapiens): 2000 nM

CO[C@H]1C[C@@H]2CC[C@@H](C)[C@@](O)(O2)C(=O)C(=O)N2CCCC[C@H]2C(=O)O[C@H]([C@H](C)C[C@@H]2CC[C@@H](O)[C@H](OC)C2)CC(=O)[C@H](C)/C=C(\C)[C@@H](O)[C@@H](OC)C(=O)[C@H](C)C[C@H](C)/C=C/C=C/C=C/1C [rapamycin]
IC50 (MOLM-14 cells; Homo sapiens): 20 nM
IC12.5 (MOLM-14 cells): 0.005 µM

CNC(=O)c1cc(Oc2ccc(NC(=O)Nc3ccc(Cl)c(C(F)(F)F)c3)cc2)ccn1 [sorafenib]
IC50 (MOLM-14 cells; Homo sapiens): 8 nM
IC12.5 (MOLM-14 cells): 0.002 µM

Cc1ccc(C(=O)Nc2ccc(CN3CCN(C)CC3)c(C(F)(F)F)c2)cc1C#Cc1cnc2cccnn12 [ponatinib]
IC50 (MOLM-14 cells; Homo sapiens): 4 nM
IC12.5 (MOLM-14 cells): 0.001 µM

Cc1cn(-c2cc(NC(=O)c3ccc(C)c(Nc4nccc(-c5cccnc5)n4)c3)cc(C(F)(F)F)c2)cn1 [nilotinib]
IC12.5 (MOLM-14 cells; Homo sapiens): 2.25 µM
IC50 (MOLM-14 cells; Homo sapiens): 9000 nM

C[C@@H](Oc1cc(-c2cnn(C3CCNCC3)c2)cnc1N)c1c(Cl)ccc(F)c1Cl [crizotinib]
IC12.5 (MOLM-14 cells; Homo sapiens): 0.45 µM
IC50 (MOLM-14 cells; Homo sapiens): 1800 nM

Cc1nc(Nc2ncc(C(=O)Nc3c(C)cccc3Cl)s2)cc(N2CCN(CCO)CC2)n1 [dasatinib]
IC50 (MOLM-14 cells; Homo sapiens): 400 nM
IC12.5 (MOLM-14 cells): 0.1 µM
pCRKL inhibition (shift in peak of PDE curve) (pCRKL [1]; CD34+ cells of five CML patients): ~1.8 fold
frequency of dasatinib-resistant CD34+ cells, alternative threshold (pCRKL greater than mean untreated − 0.5σ untreated) (pCRKL [1]; five CML patients): 8.5-53.9%
frequency of dasatinib-resistant CD34+ cells (pCRKL equal to or greater than mean of untreated CD34+ cells) (pCRKL [1]; five CML patients, of total dasatinib-treated cell population): 5.4-9.9%
pCRKL S/N ratio by QD total fluorescence (pCRKL [2]): 1.7
resistant CD34+ cell population (pSTAT5 greater than mean pSTAT5 of untreated CD34+ cells) (pSTAT5): 17-37%
pCRKL activity S/N ratio by QD counting (pCRKL [3]; dasatinib 10 nM): 4.7
pCRKL activity S/N ratio by QD counting (pCRKL [3]; dasatinib 100 nM): 2.3

CC[C@H](C)C(=O)O[C@H]1C[C@@H](C)C=C2C=C[C@H](C)[C@H](CC[C@@H]3C[C@@H](O)CC(=O)O3)[C@H]21 [lovastatin]
baseline phosphoheterogeneity [4]: reduced this heterogeneity

CS(=O)(=O)CCNCc1ccc(-c2ccc3ncnc(Nc4ccc(OCc5cccc(F)c5)c(Cl)c4)c3c2)o1 [lapatinib]
IC12.5 (MOLM-14 cells; Homo sapiens): 2.25 µM
IC50 (MOLM-14 cells; Homo sapiens): 9000 nM
